In general, EC50 refers to the concentration at which the effect is half-maximal.

Each structure is given as a SMILES string. Numbered stars: 1 amine (or outer) side, 2 acyl side, 3 side chain; on linkers, the order of the positions; unused ones are H or OH. Bridge positions count the residues as written; N and C are the ends. Square brackets hold non-standard residues; d marks the D form. Side chains are listed from the residue outwards. Peptide text beside a SMILES is read from it. I, II: the chains in the order shown. * marks the point of attachment. C18 diacid = O=C(O)CCCCCCCCCCCCCCCCC(=O)*; γGlu = O=C(O)[C@H](CCC(=O)[*:2])N[*:1]; Ac4c = NC1(C(=O)O)CCC1; AEEA = NCCOCCOCC(=O)O; Aib = CC(C)(N)C(=O)O

This test deals with T1, human glucagon receptor (Homo sapiens, UniProt P47871).
T1 construct: expressed in transfected cells; host or cells: BHK cells (parent BHK570, CRE luciferase clone BHK/KZ10-20-48), clone pLJ6'-4-25
T1 sequence (P47871 26-477): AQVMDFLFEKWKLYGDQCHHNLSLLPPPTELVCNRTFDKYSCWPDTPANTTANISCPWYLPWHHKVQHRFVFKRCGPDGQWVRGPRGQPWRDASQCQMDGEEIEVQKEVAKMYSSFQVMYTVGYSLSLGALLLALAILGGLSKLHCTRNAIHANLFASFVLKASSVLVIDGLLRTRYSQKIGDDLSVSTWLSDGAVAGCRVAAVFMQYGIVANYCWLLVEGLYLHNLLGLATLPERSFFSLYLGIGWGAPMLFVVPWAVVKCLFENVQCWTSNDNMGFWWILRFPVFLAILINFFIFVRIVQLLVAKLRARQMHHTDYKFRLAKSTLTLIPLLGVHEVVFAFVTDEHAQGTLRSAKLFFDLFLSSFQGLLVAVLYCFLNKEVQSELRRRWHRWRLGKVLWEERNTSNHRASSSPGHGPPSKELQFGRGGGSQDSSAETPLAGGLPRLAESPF
Description: Glucagon receptor potency, CRE luciferase reporter gene assay in BHK cells. The format is cell-based. As to conditions: BHK cells expressing human glucagon receptor, read-out: EC50 GlucR. In outline:
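EC50 (pM) comes from a four-parameter fit of luciferase luminescence after 3 h at 37 °C with compound at final 1×10EE-13–1×10EE-6 M. Cells: BHK570-derived line carrying human glucagon receptor plus CRE-luciferase, 5×10EE3/well, in assay medium with 2% ovalbumin, 0.2% Pluronic F-68.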
In general terms: In a reporter assay the amount or activity of a reporter protein is the signal.
For `CC(C)C[C@H](NC(=O)[C@H](Cc1ccc(O)cc1)NC(=O)[C@H](CCCCN)NC(=O)[C@H](CO)NC(=O)[C@H](CC(C)C)NC(=O)[C@H](CC(=O)O)NC(=O)[C@H](CO)NC(=O)[C@@H](NC(=O)[C@H](Cc1ccccc1)NC(=O)[C@@H](NC(=O)CNC(=O)[C@H](CCC(N)=O)NC(=O)C1(NC(=O)[C@@H](N)Cc2c[nH]cn2)CCC1)[C@@H](C)O)[C@@H](C)O)C(=O)N[C@@H](CCC(=O)O)C(=O)N[C@@H](CO)C(=O)N[C@@H](CCCCN)C(=O)N[C@@H](CCCNC(=N)N)C(=O)N[C@@H](C)C(=O)N[C@@H](CCCNC(=N)N)C(=O)N[C@@H](CCC(=O)O)C(=O)N[C@@H](Cc1ccccc1)C(=O)N[C@H](C(=O)N[C@@H](CCC(N)=O)C(=O)N[C@@H](Cc1c[nH]c2ccccc12)C(=O)N[C@@H](CC(C)C)C(=O)N[C@@H](CC(C)C)C(=O)N[C@@H](CCCCNC(=O)CNC(=O)[C@H](CO)NC(=O)[C@H](CCC(=O)O)NC(=O)CNC(=O)[C@H](CO)NC(=O)CC[C@H](NC(=O)CC[C@H](NC(=O)CCCCCCCCCCCCCCCCC(=O)O)C(=O)O)C(=O)O)C(=O)N[C@H](C(N)=O)[C@@H](C)O)C(C)C` [Example 36, N^ε28-[2-[[(2S)-2-[[(2S)-4-carboxy-2-[[2-[[(2S)-2-[[(4S)-4-carboxy-4-[[(4S)-4-carboxy-4-(17-carboxyheptadecanoylamino)butanoyl]amino]butanoyl]amino]-3-hydroxypropanoyl]amino]acetyl]amino]butanoyl]amino]-3-hydroxypropanoyl]amino]acetyl]-[Acb2,Leu10,Glu15,Lys17, Arg20,Glu21,Leu27,Lys28]-Glucagon amide] (I: H-H[Ac4c]QGTFTSDLSKYLESKRAREFVQWLLKT-NH2 / II: {C18 diacid-γGlu-γGlu}-SGESG; amide I:28-II:C; N-terminus assumed), the EC50 stood at 4 pM. Consider `CC(C)C[C@H](NC(=O)[C@H](Cc1c[nH]c2ccccc12)NC(=O)[C@H](CCC(N)=O)NC(=O)[C@@H](NC(=O)[C@H](Cc1ccccc1)NC(=O)[C@H](CCC(=O)O)NC(=O)[C@H](CCCNC(=N)N)NC(=O)[C@H](C)NC(=O)[C@H](CCCNC(=N)N)NC(=O)[C@H](CCCNC(=N)N)NC(=O)C(C)(C)NC(=O)[C@H](CC(=O)O)NC(=O)[C@H](CC(C)C)NC(=O)[C@H](Cc1ccc(O)cc1)NC(=O)[C@H](CCCCN)NC(=O)[C@H](CO)NC(=O)[C@H](CC(C)C)NC(=O)[C@H](CC(=O)O)NC(=O)[C@H](CO)NC(=O)[C@@H](NC(=O)[C@H](Cc1ccccc1)NC(=O)[C@@H](NC(=O)CNC(=O)[C@H](CCC(N)=O)NC(=O)C(C)(C)NC(=O)[C@@H](N)Cc1c[nH]cn1)[C@@H](C)O)[C@@H](C)O)C(C)C)C(=O)N[C@@H](CC(C)C)C(=O)N[C@@H](CCCCNC(=O)CC[C@H](NC(=O)CC[C@H](NC(=O)COCCOCCNC(=O)COCCOCCNC(=O)CC[C@H](NC(=O)CCCCCCCCCCCCCCCCC(=O)O)C(=O)O)C(=O)O)C(=O)O)C(=O)N[C@H](C(N)=O)[C@@H](C)O` [Example 51, N^ε28-[(4S)-4-carboxy-4-[[(4S)-4-carboxy-4-[[2-[2-[2-[[2-[2-[2-[[(4S)-4-carboxy-4-(17-carboxyheptadecanoylamino)butanoyl]amino]ethoxy]ethoxy]acetyl]amino]ethoxy]ethoxy]acetyl]amino]butanoyl]amino]butanoyl]-[Aib2,Leu10,Aib16,Arg20,Glu21,Leu27,Lys28]-Glucagon amide] (H-H[Aib]QGTFTSDLSKYLD[Aib]RRAREFVQWLLK([γGlu-γGlu-AEEA-AEEA-γGlu-C18 diacid])T-NH2; N-terminus assumed), for which the EC50 stood at 4 pM. `CC(C)C[C@H](NC(=O)[C@H](Cc1ccc(O)cc1)NC(=O)[C@H](CCCCN)NC(=O)[C@H](CO)NC(=O)[C@H](CC(C)C)NC(=O)[C@H](CC(=O)O)NC(=O)[C@H](CO)NC(=O)[C@@H](NC(=O)[C@H](Cc1ccccc1)NC(=O)[C@@H](NC(=O)CNC(=O)[C@H](CCC(N)=O)NC(=O)C(C)(C)NC(=O)[C@@H](N)Cc1c[nH]cn1)[C@@H](C)O)[C@@H](C)O)C(=O)N[C@@H](CCC(=O)O)C(=O)N[C@@H](CO)C(=O)N[C@@H](CCCCN)C(=O)N[C@@H](CCCNC(=N)N)C(=O)N[C@@H](C)C(=O)N[C@@H](CCCNC(=N)N)C(=O)N[C@@H](CCC(=O)O)C(=O)N[C@@H](Cc1ccccc1)C(=O)N[C@H](C(=O)N[C@@H](CCC(N)=O)C(=O)N[C@@H](Cc1c[nH]c2ccccc12)C(=O)N[C@@H](CC(C)C)C(=O)N[C@@H](CC(C)C)C(=O)N[C@@H](CCCCNC(=O)CNC(=O)[C@H](CO)NC(=O)[C@H](CCC(=O)O)NC(=O)CNC(=O)[C@H](CO)NC(=O)CC[C@H](NC(=O)CC[C@H](NC(=O)CCCCCCCCCCCCCCCCC(=O)O)C(=O)O)C(=O)O)C(=O)N[C@H](C(N)=O)[C@@H](C)O)C(C)C` [Example 25, N^ε28-[2-[[(2S)-2-[[(2S)-4-carboxy-2-[[2-[[(2S)-2-[[(4S)-4-carboxy-4-[[(4S)-4-carboxy-4-(17-carboxyheptadecanoylamino)butanoyl]amino]butanoyl]amino]-3-hydroxypropanoyl]amino]acetyl]amino]butanoyl]amino]-3-hydroxypropanoyl]amino]acetyl]-[Aib2,Leu10,Glu15,Lys17,Arg20,Glu21,Leu27,Lys28]-Glucagon amide] (I: H-H[Aib]QGTFTSDLSKYLESKRAREFVQWLLKT-NH2 / II: {C18 diacid-γGlu-γGlu}-SGESG; amide I:28-II:C; N-terminus assumed): the EC50 was determined as 44.7 pM. In the case of `CC(C)C[C@H](NC(=O)[C@H](Cc1ccc(O)cc1)NC(=O)[C@H](CCCNC(=N)N)NC(=O)[C@H](CO)NC(=O)[C@H](CC(C)C)NC(=O)[C@H](CC(=O)O)NC(=O)[C@H](CO)NC(=O)[C@@H](NC(=O)[C@H](Cc1ccccc1)NC(=O)[C@@H](NC(=O)CNC(=O)[C@H](CCC(N)=O)NC(=O)C(C)(C)NC(=O)[C@@H](N)Cc1c[nH]cn1)[C@@H](C)O)[C@@H](C)O)C(=O)N[C@@H](CC(=O)O)C(=O)N[C@@H](C)C(=O)N[C@@H](CCCNC(=N)N)C(=O)N[C@@H](CCCNC(=N)N)C(=O)N[C@@H](C)C(=O)N[C@@H](CCCNC(=N)N)C(=O)N[C@@H](CC(=O)O)C(=O)N[C@@H](Cc1ccccc1)C(=O)N[C@H](C(=O)N[C@@H](CCC(N)=O)C(=O)N[C@@H](Cc1c[nH]c2ccccc12)C(=O)N[C@@H](CC(C)C)C(=O)N[C@@H](CC(C)C)C(=O)N[C@@H](CCCCNC(=O)CC[C@H](NC(=O)CC[C@H](NC(=O)CC[C@H](NC(=O)CCCCCCCCCCCCCCCCC(=O)O)C(=O)O)C(=O)O)C(=O)O)C(=O)N[C@H](C(N)=O)[C@@H](C)O)C(C)C` [Example 62, N^ε28-[(4S)-4-carboxy-4-[[(4S)-4-carboxy-4-[[(4S)-4-carboxy-4-(17-carboxyheptadecanoylamino)butanoyl]amino]butanoyl]amino]butanoyl]-[Aib2,Leu10,Arg12,Ala16,Arg20,Leu27,Lys28]-Glucagon amide] (H-H[Aib]QGTFTSDLSRYLDARRARDFVQWLLK([γGlu-γGlu-γGlu-C18 diacid])T-NH2; N-terminus assumed), the EC50 turned out to be 10 pM.
